Measurements as given in the kinase profiling compilation of Christmann-Franck et al. (2016).

Tests used:
Test in all cases: KINOMEscan competition binding
Settings in all cases: compound 10.0 µM
[1] = biological target: EPHA3 (human) (UniProt P29320)
[2] = biological target: NEK5 (human) (UniProt Q6P3R8)
[3] = biological target: BLK (human) (UniProt P51451)
[4] = biological target: CDKL2 (human) (UniProt Q92772)
[5] = biological target: MAPKAPK5 (human) (UniProt Q8IW41)
[6] = biological target: SRPK1 (human) (UniProt Q96SB4)
[7] = biological target: ROS1 (human) (UniProt P08922)
[8] = biological target: PAK6 (human) (UniProt Q9NQU5)
[9] = biological target: MET (human) (UniProt P08581)
[10] = biological target: PRKACA (human) (UniProt P17612)
[11] = biological target: PRKCD (human) (UniProt Q05655)
[12] = biological target: FLT1 (human) (UniProt P17948)
[13] = biological target: LIMK2 (human) (UniProt P53671)
[14] = tested on: EGFR (human), P00533 [752-759 del]
[15] = biological target: CDC42BPB (human) (UniProt Q9Y5S2)
[16] = biological target: CSNK1G2 (human) (UniProt P78368)
[17] = biological target: FGR (human) (UniProt P09769)
[18] = biological target: MAP3K11 (human) (UniProt Q16584)
[19] = biological target: MST1R (human) (UniProt Q04912)
[20] = biological target: MAPK3 (human) (UniProt P27361)
[21] = biological target: PIK3C2B (human) (UniProt O00750)
[22] = biological target: CAMK2G (human) (UniProt Q13555)
[23] = biological target: CAMK4 (human) (UniProt Q16566)
[24] = biological target: PIK3CB (human) (UniProt P42338)
[25] = biological target: EPHB2 (human) (UniProt P29323)
[26] = biological target: ADCK4 (human) (UniProt Q96D53)
[27] = biological target: RET (human) (UniProt P07949)
[28] = biological target: CAMK2D (human) (UniProt Q13557)
[29] = biological target: PTK2 (human) (UniProt Q05397)
[30] = biological target: NTRK2 (human) (UniProt Q16620)
[31] = biological target: YES1 (human) (UniProt P07947)
[32] = biological target: EPHA7 (human) (UniProt Q15375)
[33] = biological target: RIPK1 (human) (UniProt Q13546)
[34] = biological target: WEE1 (human) (UniProt P30291)
[35] = biological target: PRKAA1 (human) (UniProt Q13131)
[36] = biological target: RPS6KA6 KD1 (human) (UniProt Q9UK32)
[37] = biological target: IGF1R (human) (UniProt P08069)
[38] = biological target: CDK9 (human) (UniProt P50750)
[39] = biological target: BTK (human) (UniProt Q06187)
[40] = biological target: PRKACB (human) (UniProt P22694)
[41] = biological target: PAK3 (human) (UniProt O75914)
[42] = biological target: ITK (human) (UniProt Q08881)

Measured: kinase still bound, per cent of control

Chain of CDK9 (human) (P50750 whole entry, looked up): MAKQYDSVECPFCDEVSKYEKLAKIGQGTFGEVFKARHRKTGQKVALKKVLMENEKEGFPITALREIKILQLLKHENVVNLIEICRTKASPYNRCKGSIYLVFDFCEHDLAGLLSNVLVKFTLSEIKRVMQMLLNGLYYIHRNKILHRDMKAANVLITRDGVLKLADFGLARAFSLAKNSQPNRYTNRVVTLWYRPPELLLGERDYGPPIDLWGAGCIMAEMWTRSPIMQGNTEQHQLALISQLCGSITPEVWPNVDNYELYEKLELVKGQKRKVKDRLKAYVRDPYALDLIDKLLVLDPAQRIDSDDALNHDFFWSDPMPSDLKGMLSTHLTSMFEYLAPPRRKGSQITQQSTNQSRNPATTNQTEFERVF
Chain of PAK6 (human) (Q9NQU5 whole entry, looked up): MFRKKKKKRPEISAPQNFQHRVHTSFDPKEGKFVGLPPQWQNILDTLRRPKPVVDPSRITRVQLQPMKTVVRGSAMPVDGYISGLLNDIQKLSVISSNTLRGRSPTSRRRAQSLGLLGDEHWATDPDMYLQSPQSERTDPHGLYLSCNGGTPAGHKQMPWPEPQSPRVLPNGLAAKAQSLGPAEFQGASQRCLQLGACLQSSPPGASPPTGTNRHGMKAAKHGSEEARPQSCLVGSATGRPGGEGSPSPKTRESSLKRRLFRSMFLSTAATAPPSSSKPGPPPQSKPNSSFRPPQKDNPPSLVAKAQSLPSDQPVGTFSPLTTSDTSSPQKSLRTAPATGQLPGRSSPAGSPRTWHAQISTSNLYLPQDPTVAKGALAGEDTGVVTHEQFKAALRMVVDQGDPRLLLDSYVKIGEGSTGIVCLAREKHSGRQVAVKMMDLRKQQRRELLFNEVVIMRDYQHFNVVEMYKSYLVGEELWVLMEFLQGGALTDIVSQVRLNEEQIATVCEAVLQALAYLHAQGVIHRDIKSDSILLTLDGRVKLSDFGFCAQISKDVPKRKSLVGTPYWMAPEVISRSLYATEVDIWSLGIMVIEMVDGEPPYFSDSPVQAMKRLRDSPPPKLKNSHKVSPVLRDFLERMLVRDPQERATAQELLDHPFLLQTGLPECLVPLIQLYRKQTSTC
Chain of PRKAA1 (human) (Q13131 whole entry, looked up): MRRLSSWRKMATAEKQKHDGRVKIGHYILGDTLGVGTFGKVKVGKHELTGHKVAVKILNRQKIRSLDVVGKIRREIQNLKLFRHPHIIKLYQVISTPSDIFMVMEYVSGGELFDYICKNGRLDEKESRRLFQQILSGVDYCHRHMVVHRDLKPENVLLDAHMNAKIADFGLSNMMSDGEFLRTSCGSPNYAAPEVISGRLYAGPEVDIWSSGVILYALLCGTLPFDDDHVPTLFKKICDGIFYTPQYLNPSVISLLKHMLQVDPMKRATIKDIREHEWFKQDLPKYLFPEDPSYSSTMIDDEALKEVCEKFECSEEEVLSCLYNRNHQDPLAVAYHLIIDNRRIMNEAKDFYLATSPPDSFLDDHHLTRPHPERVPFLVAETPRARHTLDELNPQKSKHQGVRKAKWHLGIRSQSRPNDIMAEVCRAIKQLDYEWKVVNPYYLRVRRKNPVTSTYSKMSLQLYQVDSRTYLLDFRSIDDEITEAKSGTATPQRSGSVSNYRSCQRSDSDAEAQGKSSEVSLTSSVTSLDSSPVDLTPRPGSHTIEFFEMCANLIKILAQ
Chain of LIMK2 (human) (P53671 whole entry, looked up): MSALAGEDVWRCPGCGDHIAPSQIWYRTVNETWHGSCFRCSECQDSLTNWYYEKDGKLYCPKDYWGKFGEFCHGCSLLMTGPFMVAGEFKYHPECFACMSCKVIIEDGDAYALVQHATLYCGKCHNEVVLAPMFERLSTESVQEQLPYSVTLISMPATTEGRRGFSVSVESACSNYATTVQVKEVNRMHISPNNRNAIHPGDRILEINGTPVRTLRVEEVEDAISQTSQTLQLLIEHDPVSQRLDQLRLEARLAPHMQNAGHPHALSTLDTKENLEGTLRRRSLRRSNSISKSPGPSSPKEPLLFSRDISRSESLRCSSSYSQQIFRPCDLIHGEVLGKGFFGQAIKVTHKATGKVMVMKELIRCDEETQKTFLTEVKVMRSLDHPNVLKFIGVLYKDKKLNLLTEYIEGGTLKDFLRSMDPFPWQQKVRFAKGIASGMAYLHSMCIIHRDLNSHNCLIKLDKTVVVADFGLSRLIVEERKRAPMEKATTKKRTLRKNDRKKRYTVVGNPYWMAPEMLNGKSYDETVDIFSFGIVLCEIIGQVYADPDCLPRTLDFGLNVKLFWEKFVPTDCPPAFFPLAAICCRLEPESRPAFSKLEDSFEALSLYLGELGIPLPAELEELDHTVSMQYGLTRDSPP
Chain of BLK (human) (P51451 whole entry, looked up): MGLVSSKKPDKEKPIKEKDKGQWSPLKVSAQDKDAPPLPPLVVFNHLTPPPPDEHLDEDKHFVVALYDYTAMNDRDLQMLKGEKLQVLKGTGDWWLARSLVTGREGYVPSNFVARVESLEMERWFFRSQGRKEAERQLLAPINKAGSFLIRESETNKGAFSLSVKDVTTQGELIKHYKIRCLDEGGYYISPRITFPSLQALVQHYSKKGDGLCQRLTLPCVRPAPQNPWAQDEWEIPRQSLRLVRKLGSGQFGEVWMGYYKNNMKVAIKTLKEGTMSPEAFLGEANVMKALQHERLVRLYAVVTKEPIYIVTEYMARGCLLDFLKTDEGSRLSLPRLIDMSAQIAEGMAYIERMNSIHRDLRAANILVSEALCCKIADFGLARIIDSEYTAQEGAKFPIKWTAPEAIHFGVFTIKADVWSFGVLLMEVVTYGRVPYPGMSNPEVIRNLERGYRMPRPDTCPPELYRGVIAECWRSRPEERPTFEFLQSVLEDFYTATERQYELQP
Chain of ADCK4 (human) (Q96D53 whole entry, looked up): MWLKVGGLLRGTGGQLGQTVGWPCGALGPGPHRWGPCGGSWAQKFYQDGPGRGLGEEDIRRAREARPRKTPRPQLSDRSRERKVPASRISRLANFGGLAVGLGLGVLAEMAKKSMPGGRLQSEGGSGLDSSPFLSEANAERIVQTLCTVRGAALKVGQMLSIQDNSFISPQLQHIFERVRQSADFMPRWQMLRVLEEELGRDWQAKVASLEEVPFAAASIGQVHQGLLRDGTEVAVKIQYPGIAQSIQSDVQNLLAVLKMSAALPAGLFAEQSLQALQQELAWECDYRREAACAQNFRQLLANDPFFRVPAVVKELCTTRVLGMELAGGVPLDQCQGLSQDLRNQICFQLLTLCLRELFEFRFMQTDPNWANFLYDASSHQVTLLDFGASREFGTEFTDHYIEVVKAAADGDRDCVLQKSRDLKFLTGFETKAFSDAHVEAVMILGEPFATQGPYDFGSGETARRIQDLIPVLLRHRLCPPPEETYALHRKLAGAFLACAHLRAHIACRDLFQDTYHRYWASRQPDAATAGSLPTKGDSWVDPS
Chain of EPHB2 (human) (P29323 whole entry, looked up): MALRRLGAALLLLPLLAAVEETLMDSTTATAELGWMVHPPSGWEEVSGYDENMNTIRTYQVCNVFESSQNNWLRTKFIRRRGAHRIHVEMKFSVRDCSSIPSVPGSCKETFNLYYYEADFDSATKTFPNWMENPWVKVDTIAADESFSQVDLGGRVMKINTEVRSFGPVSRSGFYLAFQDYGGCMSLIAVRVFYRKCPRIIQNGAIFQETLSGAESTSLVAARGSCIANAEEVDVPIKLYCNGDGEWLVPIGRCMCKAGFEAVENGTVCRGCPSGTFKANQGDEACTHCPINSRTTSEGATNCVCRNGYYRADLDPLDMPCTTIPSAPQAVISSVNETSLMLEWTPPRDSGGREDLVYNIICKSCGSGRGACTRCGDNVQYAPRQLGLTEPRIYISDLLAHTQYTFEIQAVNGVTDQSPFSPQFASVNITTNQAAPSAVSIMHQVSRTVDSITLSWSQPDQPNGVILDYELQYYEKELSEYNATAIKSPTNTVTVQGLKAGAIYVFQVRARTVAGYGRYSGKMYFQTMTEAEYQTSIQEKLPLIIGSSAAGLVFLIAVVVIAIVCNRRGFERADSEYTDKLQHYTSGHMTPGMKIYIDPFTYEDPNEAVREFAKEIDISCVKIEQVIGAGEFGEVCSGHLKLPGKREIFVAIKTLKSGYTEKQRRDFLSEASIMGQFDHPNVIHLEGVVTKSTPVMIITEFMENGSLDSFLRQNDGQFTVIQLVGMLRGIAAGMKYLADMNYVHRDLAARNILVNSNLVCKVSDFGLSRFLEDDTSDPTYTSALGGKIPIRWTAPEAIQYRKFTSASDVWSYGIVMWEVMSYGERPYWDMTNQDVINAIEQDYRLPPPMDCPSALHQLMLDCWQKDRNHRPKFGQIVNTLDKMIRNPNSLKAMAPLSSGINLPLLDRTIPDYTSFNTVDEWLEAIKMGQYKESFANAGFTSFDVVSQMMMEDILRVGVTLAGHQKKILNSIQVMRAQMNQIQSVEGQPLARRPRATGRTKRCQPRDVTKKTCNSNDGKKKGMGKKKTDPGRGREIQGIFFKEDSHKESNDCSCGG
Chain of CDKL2 (human) (Q92772 whole entry, looked up): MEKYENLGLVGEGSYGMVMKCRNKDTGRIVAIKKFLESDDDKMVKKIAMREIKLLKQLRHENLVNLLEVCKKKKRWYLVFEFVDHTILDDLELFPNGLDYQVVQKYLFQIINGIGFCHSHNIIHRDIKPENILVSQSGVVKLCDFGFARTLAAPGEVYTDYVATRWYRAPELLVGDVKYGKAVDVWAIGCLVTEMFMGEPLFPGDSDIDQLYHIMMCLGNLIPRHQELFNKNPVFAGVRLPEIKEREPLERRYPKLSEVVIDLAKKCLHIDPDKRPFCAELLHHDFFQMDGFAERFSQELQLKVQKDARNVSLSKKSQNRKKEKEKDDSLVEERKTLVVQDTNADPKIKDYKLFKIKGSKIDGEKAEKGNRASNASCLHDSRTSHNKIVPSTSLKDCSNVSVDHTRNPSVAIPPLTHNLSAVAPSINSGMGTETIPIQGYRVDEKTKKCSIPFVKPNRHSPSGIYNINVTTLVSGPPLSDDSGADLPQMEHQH

CN1C(=O)c2ccccc2N(C)c2nc(Nc3ccc(N4CCC(O)CC4)cc3)ncc21
100%: [2] | [4] | [6] | [8] | [10] | [11] | [13] | [15] | [18] | [20] | [22] | [23] | [25] | [32] | [33] | [34] | [37] | [38] | [39] | [40]
6.6%: [17]
94%: [12] | [19] | [24]
36%: [30]
96%: [42]
89%: [21]
78%: [26]
88%: [28]
38%: [31]
12%: [3]
35%: [7]
17%: [35]
75%: [29]
83%: [1]
77%: [9]
80%: [16]
92%: [5] | [14]
61%: [36]
37%: [41]
15%: [27]

CN1CCN(c2ccc(C(=O)Nc3ncc4c(n3)N(C)c3ccccc3C(=O)N4C)cc2)CC1
98%: [15]
91%: [25]
99%: [21]
69%: [30]
63%: [5]
79%: [41]
96%: [31]
93%: [19]
100%: [1] | [2] | [3] | [4] | [6] | [7] | [8] | [9] | [10] | [11] | [12] | [13] | [14] | [16] | [17] | [18] | [20] | [22] | [23] | [24] | [26] | [27] | [28] | [29] | [32] | [33] | [34] | [35] | [36] | [37] | [38] | [39] | [40] | [42]

CN1C(=O)c2ccccc2N(C)c2nc(NS(=O)(=O)c3ccc(N)cc3)ncc21
97%: [1] | [21]
76%: [41]
53%: [30]
99%: [34]
94%: [25]
91%: [26]
100%: [2] | [3] | [4] | [5] | [6] | [7] | [8] | [9] | [10] | [11] | [12] | [13] | [14] | [15] | [16] | [17] | [18] | [19] | [20] | [22] | [23] | [24] | [27] | [28] | [29] | [31] | [32] | [33] | [35] | [36] | [37] | [38] | [39] | [40] | [42]
